Measurements reported in paper PMC9319560 (Viruses, 2022).
“Also recorded” adds a separate entry of the source. Where two headings read alike, the source gives them in different places. No end group written: not given here.

Key:
viperin (RSAD2) = assay: Viperin; format: cell-based, human; details: NHEK, WNV MOI 0.1, 48 h, immunofluorescence, 3 independent experiments
[1] = test system: human primary keratinocytes (NHEK); format: cell-based; details: 3 h, RT-qPCR; for pro-inflammatory effects of the peptide alone (mRNA of inflammatory markers): peptide alone 0.1, 1 and 10 µg/mL, 6 independent experiments (Figure S1)
[2] = test system: pro-inflammatory cytokine release; details: cell-specific and concentration-dependent; cell supernatant; cited from earlier work
West Nile virus (WNV) [3] = assay: WNV RNA quantification by RT-qPCR in infected human primary keratinocytes; format: cell-based; details: NHEK, WNV MOI 0.1, 24 h; for viral load in the cell monolayers: peptide 1 or 10 µg/mL added 1 h before infection, versus untreated; for effect on WNV replication in human primary keratinocytes: peptide 1 or 10 µg/mL, viral load in monolayer and supernatant by RT-qPCR
[4] = test system: normal human epidermal keratinocytes (NHEK); assay: LDH release assay on NHEK; format: cell-based; details: concentrations up to 10 µg/mL (1 to 20 µg/mL tested), 48 h per b34/b35 (24 h per b9), compared with non-treated cells, mean of at least 3 independent experiments
West Nile virus (WNV) [5] = details: for reduction in the viral titer (factor): WNV inoculum 10^5.27 TCID50/mL pre-incubated 1 h at 37 °C (legend: 2 h), residual titer on Vero cells, versus WNV incubated alone, 5 independent experiments
[6] = test system: human primary keratinocytes (NHEK) infected by WNV; assay: Inflammatory marker mRNA expression in NHEK infected with WNV, RT-qPCR; format: cell-based; details: WNV MOI 0.1, 24 h, 1 or 10 µg/mL peptide, versus WNV alone, similar trend, fold changes less marked, 5 independent experiments
viral envelope = details: previous studies; cited from earlier work
[7] = test system: normal human epidermal keratinocytes (NHEK); assay: XTT cell viability assay on NHEK; format: cell-based; details: concentrations up to 10 µg/mL (1 to 20 µg/mL tested), 48 h incubation, compared with non-treated cells, mean of at least 3 independent experiments
DENV = details: pretreatment by 30 µg/mL of peptide; cited from earlier work
[8] = test system: human immunodeficiency virus; details: concentration-dependent antiviral effect against human immunodeficiency virus; cited from earlier work
[9] = test system: human primary keratinocytes (NHEK); assay: Inflammatory marker mRNA expression in NHEK stimulated with poly(I:C), RT-qPCR; format: cell-based; details: NHEK stimulated with 0.1 µg/mL poly(I:C) alone, 3 h
[10] = 1 µg/mL peptide, versus WNV alone, p < 0.05
[11] = whatever the concentration of the peptide (1 or 10 µg/mL)
[12] = RT-qPCR, 5 independent experiments

| Substance | RSAD2 protein expression (viperin (RSAD2); [10]) | RSAD2 protein expression (viperin (RSAD2); [11]) | pro-inflammatory effects of the peptide alone (mRNA of inflammatory markers) [1] | concentration from which decreased pro-inflammatory cytokine release was seen [2] | decrease of viral RNA in the cell supernatant (West Nile virus (WNV) [3]; 10 µg/mL peptide added 1 h before infection, RT-qPCR, versus untreated cells, 5 independent experiments, p < 0.05) | viral load in the cell monolayers (West Nile virus (WNV) [3]; [12]) | effect on WNV replication in human primary keratinocytes (West Nile virus (WNV) [3]) | keratinocyte viability (LDH release) [4] | reduction in the viral titer (factor) (West Nile virus (WNV) [5]; 1 µg/mL peptide) | reduction in the viral titer (factor) (West Nile virus (WNV) [5]; 10 µg/mL peptide) | reduction in the viral infectious titer (West Nile virus (WNV) [5]; WNV strain incubated with peptide, concentration not given) | expression of ISGs and inflammatory markers (mRNA) during WNV infection [6] | concentration from which degradation of the viral envelope was observed (viral envelope) | keratinocyte viability (XTT) [7] | CXCL-8 mRNA expression, peptide alone ([1]; 10 µg/mL peptide alone, p < 0.05 (Figure S1)) | DENV titer (DENV) | concentration at which the antiviral effect is significant [8] | inflammatory response of NHEK [9] |
| --- | --- | --- | --- | --- | --- | --- | --- | --- | --- | --- | --- | --- | --- | --- | --- | --- | --- | --- |
| LL-37 | significantly increased | enhanced | no significant pro-inflammatory effects | ≥ 25 µg/mL | 5.5 fold | No significant difference | inhibits WNV replication | greater than or equal to 90% | 14 | 95 | 2 log10 | not significant | ≥ 10 µg/mL | greater than or equal to 90% | – | – | – | – |
| hBD-3 (GIINTLQKYYCRVRGGRCAVLSCLPKEEQIGKCSTRGRKCCRRKK; ends and bridges not checked; cysteine pairing not given here; UniProt P81534 23-67, looked up) [type 3 human β-defensin, skin antimicrobial peptide; purchased from PeproTech] | significantly increased | enhanced | no significant pro-inflammatory effects | – | – | No significant difference | does not seem to have any effect; also recorded: not reduced | greater than or equal to 90% | – | – | – | – | – | greater than or equal to 90% | notable exception | did not result in a significant decrease | greater than 25 µg/mL | – |
| poly(I:C) | – | – | – | – | – | – | – | – | – | – | – | – | – | – | – | – | – | elicited an inflammatory response |
